According to ChEMBL document CHEMBL3632605, “Structure-guided discovery of 2-aryl/pyridin-2-yl-1H-indole derivatives as potent and selective hepsin inhibitors” (Bioorg Med Chem Lett, 2015):
Values after ≈ are worked out from the molar mass of the structure shown.

What was measured:
Serine protease hepsin = Serine protease hepsin (Homo sapiens, UniProt P05981); assay: Inhibition of human recombinant hepsin by fluorescence based assay using 65 uM BOC-Gln-Arg-Arg -AMC as substrate
Trypsin = Trypsin (Homo sapiens, UniProt P07477+P07478+P35030); assay: Inhibition of human trypsin by fluorescence based assay using 25 uM Boc-Gln-Ala-Arg-7-amido-4-methyl coumarinhydrobromide as substrate; type: protein assay
[1] = target: T1, Suppressor of tumorigenicity 14 protein (Homo sapiens, UniProt Q9Y5Y6); assay: Inhibition of human recombinant matriptase by fluorescence based assay using 20 uM Boc-Gln-Ala-Arg-7-amido-4-methyl coumarinhydrobromide as substrate
T1 sequence (Q9Y5Y6 whole entry): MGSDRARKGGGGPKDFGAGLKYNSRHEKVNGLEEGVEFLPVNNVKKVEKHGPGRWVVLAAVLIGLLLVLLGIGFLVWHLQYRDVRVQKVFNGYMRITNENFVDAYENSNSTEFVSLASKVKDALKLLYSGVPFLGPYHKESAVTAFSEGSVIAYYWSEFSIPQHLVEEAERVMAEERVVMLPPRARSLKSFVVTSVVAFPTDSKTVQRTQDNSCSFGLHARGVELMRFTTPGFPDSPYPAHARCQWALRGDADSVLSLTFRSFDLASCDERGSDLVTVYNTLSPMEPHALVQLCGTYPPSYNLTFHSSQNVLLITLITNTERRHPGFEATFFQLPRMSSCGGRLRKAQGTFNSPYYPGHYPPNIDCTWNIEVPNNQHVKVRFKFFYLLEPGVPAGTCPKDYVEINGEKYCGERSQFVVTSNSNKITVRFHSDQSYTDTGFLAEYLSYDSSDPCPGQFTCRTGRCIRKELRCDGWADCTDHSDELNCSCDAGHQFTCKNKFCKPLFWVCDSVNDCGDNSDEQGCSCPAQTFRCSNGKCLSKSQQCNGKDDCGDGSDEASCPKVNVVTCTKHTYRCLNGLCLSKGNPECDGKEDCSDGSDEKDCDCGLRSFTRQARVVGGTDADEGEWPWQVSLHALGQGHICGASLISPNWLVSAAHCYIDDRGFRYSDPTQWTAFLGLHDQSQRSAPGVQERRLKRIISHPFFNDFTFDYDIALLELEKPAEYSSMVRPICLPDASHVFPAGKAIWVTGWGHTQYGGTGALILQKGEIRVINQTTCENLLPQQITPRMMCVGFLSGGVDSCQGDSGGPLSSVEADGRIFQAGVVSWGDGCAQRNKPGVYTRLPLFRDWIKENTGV

[2] = Stability in mouse liver microsomes assessed as compound remaining at 1 uM after 20 mins by LC-MS/MS analysis; type: ADME; settings: read-out: Stability
PC-3 [3] = assay: Cytotoxicity against human PC3 cells at 10 uM after 72 hrs by calcein AM assay; type: cell-based; settings: pc-3, 72 h
[4] = Stability in mouse liver microsomes assessed as compound remaining at 1 uM after 40 mins by LC-MS/MS analysis; type: ADME; settings: read-out: Stability
[5] = target: Urokinase-type plasminogen activator (Homo sapiens, UniProt P00749); assay: Inhibition of human uPA by fluorescence based assay using L-PyroGlu-Gly-Arg-pNA.HCl as substrate
[6] = Cytotoxicity against human LNCaP-C42B4 cells at 10 uM after 72 hrs by calcein AM assay; type: cell-based; settings: lncap-c42b4, 72 h
[7] = Antimigratory activity in human LNCaP-C42B4 cells by transwell-chamber assay; type: functional, cell-based
PC-3 [8] = assay: Antimigratory activity in human PC3 cells by transwell-chamber assay; type: functional, cell-based
[9] = Aqueous solubility of compound at pH 7.4 by HPLC-UV/Vis analysis; type: physicochemical; settings: aqueous medium
Coagulation factor X = Coagulation factor X (Bos taurus, UniProt P00743); assay: Inhibition of bovine factor 10a by fluorescence based assay using CH3OCO-D-CHA-Gly-Arg-pNA.AcoH as substrate
[10] = target: Plasminogen (Homo sapiens) (UniProt P00747); assay: Inhibition of human plasmin at 5 uM by fluorescence based assay using pyroGlu-Phe-Lys-pNA.HCl as substrate
Prothrombin = Prothrombin (Homo sapiens, UniProt P00734); assay: Inhibition of human thrombin by fluorescence based assay using 100 uM Boc-Gln-Ala-Arg-7-amido-4-methyl coumarinhydrobromide as substrate
[11] = Antinvasive activity in human LNCaP-C42B4 cells by matrigel assay; type: functional, cell-based
PC-3 [12] = assay: Antinvasive activity in human PC3 cells by matrigel assay; type: functional, cell-based

Chain of Plasminogen (Homo sapiens) (P00747 97-580 limits assumed): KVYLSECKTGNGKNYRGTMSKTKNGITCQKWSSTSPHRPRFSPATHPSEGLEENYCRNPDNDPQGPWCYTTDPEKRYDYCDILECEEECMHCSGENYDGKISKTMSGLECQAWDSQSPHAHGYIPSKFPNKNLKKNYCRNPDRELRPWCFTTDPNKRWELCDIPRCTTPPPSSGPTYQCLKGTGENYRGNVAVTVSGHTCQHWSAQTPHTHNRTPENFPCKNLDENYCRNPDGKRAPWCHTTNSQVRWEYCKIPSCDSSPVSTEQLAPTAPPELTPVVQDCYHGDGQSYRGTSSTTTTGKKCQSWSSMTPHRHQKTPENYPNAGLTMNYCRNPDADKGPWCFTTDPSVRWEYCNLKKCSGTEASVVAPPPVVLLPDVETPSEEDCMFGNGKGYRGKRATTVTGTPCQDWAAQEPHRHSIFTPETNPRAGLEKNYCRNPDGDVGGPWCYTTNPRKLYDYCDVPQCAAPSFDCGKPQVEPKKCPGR
Chain of Plasminogen (Homo sapiens) (P00747 581-810 limits assumed): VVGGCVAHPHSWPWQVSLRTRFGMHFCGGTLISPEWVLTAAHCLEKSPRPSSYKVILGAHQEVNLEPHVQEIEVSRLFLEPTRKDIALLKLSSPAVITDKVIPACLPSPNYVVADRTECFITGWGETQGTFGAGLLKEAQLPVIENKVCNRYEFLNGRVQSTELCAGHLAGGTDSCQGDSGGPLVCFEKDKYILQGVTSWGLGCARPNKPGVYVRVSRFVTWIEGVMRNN
Chain of Serine protease hepsin (P05981 1-162 limits assumed): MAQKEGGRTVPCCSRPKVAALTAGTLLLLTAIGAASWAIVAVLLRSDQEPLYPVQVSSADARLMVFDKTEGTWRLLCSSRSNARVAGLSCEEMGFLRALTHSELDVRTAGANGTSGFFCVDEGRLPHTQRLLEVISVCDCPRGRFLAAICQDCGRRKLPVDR
Chain of Serine protease hepsin (P05981 163-417 limits assumed): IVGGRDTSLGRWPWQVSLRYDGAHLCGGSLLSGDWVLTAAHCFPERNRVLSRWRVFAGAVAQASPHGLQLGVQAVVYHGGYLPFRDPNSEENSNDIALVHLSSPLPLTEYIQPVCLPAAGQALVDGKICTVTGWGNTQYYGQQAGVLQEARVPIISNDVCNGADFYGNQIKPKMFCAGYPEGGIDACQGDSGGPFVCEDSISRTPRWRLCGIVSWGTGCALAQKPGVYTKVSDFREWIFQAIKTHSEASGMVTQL
Chain of Coagulation factor X (P00743 41-180 limits assumed): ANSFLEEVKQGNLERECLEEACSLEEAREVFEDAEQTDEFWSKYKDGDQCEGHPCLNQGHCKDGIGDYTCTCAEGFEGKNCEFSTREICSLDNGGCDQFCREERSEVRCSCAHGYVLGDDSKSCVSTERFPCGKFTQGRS
Chain of Coagulation factor X (P00743 234-492 limits assumed): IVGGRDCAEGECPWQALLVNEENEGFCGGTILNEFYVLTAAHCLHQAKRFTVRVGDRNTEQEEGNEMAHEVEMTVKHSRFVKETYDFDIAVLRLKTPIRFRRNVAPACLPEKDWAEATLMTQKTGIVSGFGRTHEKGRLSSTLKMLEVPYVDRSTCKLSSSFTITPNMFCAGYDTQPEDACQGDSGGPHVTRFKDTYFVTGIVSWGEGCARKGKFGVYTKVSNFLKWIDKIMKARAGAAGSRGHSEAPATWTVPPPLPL

Row | SMILES | Ki (Serine protease hepsin) | Ki (Trypsin) | Ki [1] | remaining at 20 min, 1 µM [2] | Activity (PC-3 [3]) | remaining at 40 min, 1 µM [4] | Ki [5] | Activity [6] | EC50 [7] | EC50 (PC-3 [8]) | solubility [9] | Ki (Coagulation factor X) | inhibition [10] | Ki (Prothrombin) | EC50 [11] | EC50 (PC-3 [12])
1 | N=C(N)c1ccc2[nH]c(-c3ccccc3O)cc2c1 | 35 µM | 8 µM | 60 µM |  |  |  |  |  |  |  |  |  |  |  |  | 
2 | N=C(N)c1ccc2[nH]c(-c3cccc(N4CCCCC4)n3)cc2c1 | 0.6 µM |  | 1.5 µM | 82% | 10% | 60% | 2.3 µM | 12% | 2.6 µM | 5.2 µM | 135 µM (≈ 43.1 µg/mL) |  |  |  |  | 
3 | N=C(N)c1ccc2[nH]c(-c3cccc(C4(F)CCCCC4)n3)cc2c1 | 0.4 µM | 0.5 µM | 0.8 µM |  |  |  | 2.7 µM |  |  |  |  | 0.7 µM | 11% | 3.6 µM |  | 
4 | N=C(N)c1ccc2[nH]c(-c3ccccc3O)nc2c1 | 40 µM | 23 µM |  |  |  |  |  |  |  |  |  | 14 µM |  |  |  | 
5 | N=C(N)c1ccc2[nH]c(-c3cccc(N4CCCCC4)c3O)cc2c1 | 1.4 µM |  | 0.5 µM | 38% | 22% | 22% |  | 18% | 4.2 µM | 4.9 µM | 126 µM (≈ 42.1 µg/mL) |  |  |  |  | 
6 | N=C(N)c1ccc2[nH]c(-c3cccc(C4(O)CCCCC4)n3)cc2c1 | 0.1 µM | 0.4 µM | 2.1 µM | 86% | 10% | 64% | 1.3 µM | 8% | 0.9 µM | 2.6 µM | 148 µM (≈ 49.5 µg/mL) | 1.4 µM | 24% | 2.1 µM | 0.6 µM | 3.5 µM
7 | CC(C)c1cccc(-c2cc3cc(C(=N)N)ccc3[nH]2)c1O | 4.9 µM | 0.8 µM | 4.4 µM |  |  |  |  |  |  |  |  | 1 µM |  | 1.9 µM |  | 
8 | N=C(N)c1ccc2[nH]c(-c3cccc(C4(O)CCCCC4)[n+]3[O-])cc2c1 | 0.1 µM | 0.8 µM | 1.1 µM | 100% | 8% | 99% | 7.8 µM | 1% | 0.6 µM | 1.8 µM | 200 µM (≈ 70.1 µg/mL) | 8.2 µM | 11% | 8.6 µM | 0.5 µM | 2.1 µM
9 | CC(C)c1cc(Cl)cc(-c2cc3cc(C(=N)N)ccc3[nH]2)c1O | 4.8 µM |  | 4.8 µM |  |  |  |  |  |  |  |  |  | 5% |  |  | 
10 | N=C(N)c1ccc2[nH]ccc2c1 | 500 µM |  |  |  |  |  |  |  |  |  |  |  |  |  |  | 
